# ChEMBL document CHEMBL3507680, “University of Dundee, Gates Library screen for HepG2 cell viability”
# Assay: Human HepG2 cell viability assay in 384 well format
# Format: toxicity, cell-based
# Set-up: dose 125 nL, time 70.5 hour; cytotoxicity at 70.5 h: concentration not given beside the values
# Conditions: HepG2 cells, read-out: Inhibition
row,SMILES,cytotoxicity at 70.5 h [%]
1,CCCS(=O)(=O)N1CCC2(CC1)COCCN(C(C)=O)C2,-4.27
2,O=C(Nc1cnccn1)[C@@H]1C[C@H]2OCC[C@H]2N(c2ncc(F)cn2)C1,18
3,CCn1cc2c(n1)C(COCC1CC1)CN(C(=O)c1ccsc1)C2 (stereo not given),-10.1
4,CCCS(=O)(=O)N1CCOC2(COCCN(C(C)=O)C2)C1 (stereo not given),-8.79
5,CN(C)C(=O)Cn1c2c(ccc1=O)CC(NCc1cccnc1)CC2 (stereo not given),-10.4
6,O=C(C1CCCO1)N1CCCn2c(nnc2Cn2cccc2)C1 (stereo not given),-11.4
7,c1cc(-c2ccc3c(c2)C2(CCNCC2)CC3)ccn1,50.6
8,O=C([C@H]1COC[C@H]2CN(CC3CC3)C[C@H]21)N1CCOCC1,-2.68
9,Cn1c(C(=O)N2CCOCC2)nc2c1CCN(c1ncccn1)C2,-1.44
10,CCOCC1COCCC12CCN(C(=O)C1=CCCCC1)CC2 (stereo not given),-4.56
11,COc1cccc(CC(=O)N2CCc3ncnc(C)c3CC2)c1,-5.98
12,O=S1(=O)NCC2(CCN(c3ncc(F)cn3)CC2)COc2ccccc21,-0.496
13,CC1N(C)C(=O)COC12CCN(C(=O)CCc1ccccc1)CC2 (stereo not given),5.92
14,O=C(Cc1cccc(F)c1)N1CCc2ncnc(N3CCCC3)c2CC1,-1.93
15,CC(C)n1cnc2c1C(C(=O)N1CCCC1)N(S(C)(=O)=O)CC2 (stereo not given),-0.195
16,Cc1ccc(CNC(=O)C2c3c(ncn3C(C)C)CCN2S(C)(=O)=O)o1 (stereo not given),-0.242
17,CN1CCCN(C(=O)c2nc3c(n2C)CCN(c2ncccn2)C3)CC1,22.6
18,CCOCC1C[C@@H]2OCCN(C(=O)c3ccc[nH]3)[C@H]2C1 (stereo not given in full),-6.8
19,O=C(NCC1CC1)[C@H]1C[C@@H]2CN(C(=O)NCC3CCCCC3)C[C@H]1O2,30.6
20,O=C(c1ccc[nH]1)N1CCO[C@H]2CC(COCc3ccccn3)C[C@@H]21 (stereo not given in full),2.76
21,CCN(C)C(=O)c1cc(-c2cn(C(C)C)cn2)n2ccccc12,26.7
22,CCc1cnc(N2CCC3(CC2)CCN(c2cnn(C)c2)C3=O)nc1,31.2
23,CN1C(=O)CC2(CCN(S(=O)(=O)N(C)C)CC2)c2ccccc21,33.2
24,CN1C(=O)CC2(CCNCC2)c2ccccc21,6.26
25,CN1C(=O)CC2(CCN(S(=O)(=O)c3cccs3)CC2)c2ccccc21,8.66
26,CN1CCN(CC2CC2)C(=O)C12CCN(c1nccs1)CC2,7.83
27,O=C(NC1CC1)c1nc2c(o1)CN(c1ncccn1)C2,1.1

row,SMILES,cytotoxicity at 70.5 h [%]
1,O=C(N1CCCC1)C12CC(CN1Cc1nccs1)C2,-9.99
2,CN(C)CCN1CCN(C)C2(CCN(c3nccs3)CC2)C1=O,-3.76
3,O=C(NCC1CC1)C12CC(CN1Cc1nccs1)C2,-9.03
4,O=C(c1cnccn1)N1C[C@@H](c2ccccc2)[C@@]2(CCNC2=O)C1,-4.45
5,Cc1ccc(CN2CC[C@@H](N(C)C(C)C)[C@@H]2Cc2ccccc2)o1,2.54
6,Cc1nc(COCC2CNCc3nccn3C2)cs1 (stereo not given),7.13
7,CC(=O)N1CC[C@@H]2CN(Cc3cccc(Cl)c3)S(=O)(=O)[C@@H]2CC1,-1.91
8,CCS(=O)(=O)N1CCOC2(CCCN(c3cccc(C#N)c3)C2)C1 (stereo not given),-5.28
9,Cn1cc(C(=O)N[C@H]2CN(S(C)(=O)=O)[C@@H]3CCCO[C@H]23)cn1,-9.45
10,CCOCC1CN(C(=O)c2ccco2)Cc2nn(C)cc21 (stereo not given),-9.75
11,CCOCC1CN(C(=O)c2ccsc2)Cc2nn(C)cc21 (stereo not given),-8.31
12,O=C(C1=CCCC1)N1C[C@H](OCc2cccnc2)[C@H]2OCCC[C@H]21,-9.34
13,O=C(NCc1cccnc1)C1=NOC2(CCCN(CCO)C2)C1 (stereo not given),-10.7
14,COCCNC(=O)[C@H]1CC[C@@H]2[C@@H](CCN2S(C)(=O)=O)O1,11.5
15,COCCN1C(=O)CO[C@@H]2CN(S(=O)(=O)c3ccccc3)C[C@H]21,5.06
16,CCCS(=O)(=O)N1CCc2onc(CNc3ncccn3)c2C1,6.05
17,CCN1CCc2onc(CNc3ncccn3)c2C1,8.16
18,CCOCc1ncn2c1CN(S(=O)(=O)c1cccc(C)c1)CC2,-1.4
19,Cc1nc(C)c2c(n1)CCN(Cc1ccco1)CC2,2.27
20,CC(C)NC(=O)N1CCC2(COCc3cnc(-c4ccccc4)nc32)C1 (stereo not given),9.3
21,CNC(=O)N1CCc2cc(C(=O)NCC3CC3)c(NC(C)C)nc2CC1,-7.34
22,O=C(C1CCC1)N1CCC2(COCc3cnc(-c4cccnc4)nc32)C1 (stereo not given),-3.5
23,COCC(=O)N1CCC2(COCc3cnc(-c4ccccc4)nc32)C1 (stereo not given),-3.58
24,CCS(=O)(=O)N1CCc2onc(CNc3ncccn3)c2C1,-8.6
25,O=C(CC1CC1)N1CCC2(COCc3cnc(-c4ccccc4)nc32)C1 (stereo not given),-8.52
26,CCCNC(=O)c1nc2c(o1)CN(C(=O)CN(C)C)C2,-8.52
27,Cc1cc(C(=O)N2C[C@@H]3COC[C@]3(c3nnc(C(C)C)o3)C2)on1,-9.37

row,SMILES,cytotoxicity at 70.5 h [%]
1,CCN(C)c1ncnc2c1CCN(C(=O)c1ccc(C)o1)CC2,-11.3
2,Cc1nc([C@H]2C[C@H]3CN(C(=O)c4cc(C)c(C)s4)CC[C@@H]3O2)no1,-12.1
3,O=C([C@H]1CCCO1)N1CCC2(CC1)CNCc1ccccc12,8.83
4,O=C([C@@H]1CSCN1)N1CCC2(CC1)CNCc1ccccc12,3.6
5,c1ccc(-c2cnc3n2CCNC32CCNCC2)cc1,43.5
6,CN(C)CCNC(=O)[C@H]1C[C@@H]2CN(C(=O)NC3CCCC3)C[C@H]1O2,5.4
7,CN(C)Cc1cnc2n1CCN(C(=O)Cc1ccsc1)CC2,8.26
8,CC1N(C)C(=O)COC12CCN(Cc1ccsc1)CC2 (stereo not given),4.85
9,COCCN1CCOCC12CCN(c1ccc(C#N)cc1)CC2,-0.11
10,O=S1(=O)NCC2(CCNCC2)COc2ccccc21,-2.63
11,CN(C)Cc1cnc2n1CCN(C(=O)NCc1ccccc1)CC2,4.32
12,CN(C)Cc1cnc2n1CCN(C(=O)Cc1cccc(F)c1)CC2,4.88
13,Cc1nc(CN2CCOCC23CCN(c2ccc(C#N)cc2)CC3)cs1,-2.38
14,CN1CCOCC12CCN(c1ccc(C#N)cc1)CC2,-5.69
15,CCN1CCOCC12CCN(c1ccc(C#N)cc1)CC2,-6.86
16,Cc1ccc(OCC(=O)N2C[C@@H]3CN(C)CCO[C@@H]3C2)cc1,-7.41
17,COCCN1CCN(c2ccc(C)nn2)Cc2cccnc21,-7.28
18,O=C(NC1CC2(CCN(CCO)CC2)c2ccccc21)c1ccsc1 (stereo not given),8.71
19,Cc1ccc(N2CCN(C)c3ncccc3C2)nn1,-2.98
20,COCC1CN(C(=O)COc2ccccc2C)Cc2ncn(C)c21 (stereo not given),-4.45
21,COCC1CN(S(=O)(=O)Cc2ccc(C)cc2)Cc2c1cnn2C (stereo not given),-6.77
22,O=C(NCCN1CCOCC1)c1ccnn1-c1ccc2ccccn12,3.81
23,CC(C)n1cnc2c1C(C(=O)N(C)C)N(Cc1ccccc1)CC2 (stereo not given),-3.01
24,Cc1occc1C(=O)N1C[C@H]2CCCC(OCc3cccnc3)[C@H]2C1 (stereo not given in full),-4.67
25,Cc1occc1C(=O)N1CCO[C@H]2[C@H](OCc3cccnc3)CC[C@@H]21,-8.78
26,Cc1ccc(CN2CC[C@H]3O[C@@H](C(=O)N4CCCO4)CC[C@H]32)s1,-4
27,O=C(NCc1cccnc1)C1=NOC2(CCN(C(=O)N3CCCC3)C2)C1 (stereo not given),-9.94

row,SMILES,cytotoxicity at 70.5 h [%]
1,CCS(=O)(=O)N1CCOC2(CCCN(c3cnccn3)C2)C1 (stereo not given),-6.84
2,O=C(c1cnccn1)N1CCO[C@H]2[C@H](OCc3cccnc3)CC[C@@H]21,-6.93
3,Cn1ccnc1C(=O)N[C@@H]1CN(Cc2cccs2)[C@@H]2CCCO[C@@H]21,-14.1
4,COCCN1CCN(C(=O)NC2CC2)Cc2ccc(C)nc21,-12.1
5,Cc1noc(C)c1CN1CC[C@H]2OCC[C@@H](C(=O)NCC3CC3)[C@H]2C1,-8.02
6,O=C([C@H]1CC[C@@H]2[C@@H](CCN2Cc2nccs2)O1)N1CCCCO1,-5.06
7,Cn1cc(C(=O)N[C@@H]2CN(CC3CCOCC3)[C@@H]3CCCO[C@@H]32)cn1,-7.22
8,Cc1cc(C(=O)N2CCC3(CC2)CC(c2cccnc2)C(=O)N3C)no1 (stereo not given),1.74
9,CCN(C)c1ncnc2c1CCN(C(=O)c1cnccn1)CC2,-12.8
10,Cc1ccc(CN2CC(C(=O)NCC3CC3)C3(CCOCC3)C2)s1 (stereo not given),-7.98
11,Cc1ccc(CN2CC(C(=O)NC(C)C)C3(CCOCC3)C2)s1 (stereo not given),-11.4
12,CC(C)N1CCC2(C=C(C(=O)N(C)C)c3ccccc32)CC1,-16.2
13,Cc1ccc(CN2C[C@@H]3CN(CC4CCOCC4)CCO[C@@H]3C2)s1,8.99
14,CCc1cnc(N2C[C@H](OCc3csc(C)n3)[C@H]3COC[C@H]32)nc1,2.07
15,CCN(C)c1ncc2c(c1C(=O)O)CCN(C1CCOC1)C2 (stereo not given),0.989
16,Cn1cc(CN2C[C@@H](NC(=O)c3cscn3)[C@H]3OCCC[C@H]32)cn1,-8.57
17,c1cnc(N2CCCC3(CN(CC4CCOCC4)CCO3)C2)cn1 (stereo not given),-3.73
18,Cn1cc(C(=O)N[C@@H]2CN(Cc3cccnc3)[C@@H]3CCCO[C@@H]32)cn1,-4.29
19,Cn1cc(CN2CC[C@H]3O[C@@H](C(=O)NC4CC4)CC[C@H]32)cn1,-1.4
20,CN(Cc1ccco1)C[C@H]1OC[C@@H]2CCN(Cc3ccsc3)C[C@@H]21,-7.38
21,CC(C)Nc1nc2c(cc1C(=O)NCC1CC1)CCN(C)CC2,-8.36
22,Cc1ccc(CN2CC[C@H]3CO[C@H](CN(C)Cc4ccco4)[C@H]3C2)s1,4.82
23,Cc1cccc(CO[C@@H]2C[C@H]3CN(c4ncccn4)CCN3C2)n1,-1.58
24,CN(Cc1ccco1)C[C@H]1OC[C@@H]2CCN(Cc3ccncc3)C[C@@H]21,15.7
